The source of these data is the RepoRT retention time repository (doi:10.1007/s00216-021-03828-0).

Common to all, as to conditions: stereoisomer not certain
Data set [1] can be described thus: RP, Merck Supelco Ascentis Express C18, 100 × 2.1 mm, 2 µm, 40 °C, 0.2 mL/min, estimated dead time 1.1 min; A: water + 0.1% formic acid, pH 3; B: acetonitrile + 0.1% formic acid, pH 3; gradient (min/%B) 0/5 2/5 17/99.9 20/99.9.
Experiment in data set [2]: as above
The source holds these as a separate data set.

Data set [3] is described as follows: RP, Merck Supelco Ascentis Express C18, 100 × 2.1 mm, 2 µm, 40 °C, 0.4 mL/min, estimated dead time 0.55 min; A: water + 0.1% formic acid, pH 3; B: acetonitrile + 0.1% formic acid, pH 3; gradient (min/%B) 0/5 2/5 17/99.9 20/99.9.
The nature of data set [4]: RP, Merck Supelco Ascentis Express C18, 100 × 2.1 mm, 2 µm, 40 °C, 0.25 mL/min, estimated dead time 0.88 min; A: water + 0.1% formic acid, pH 3; B: acetonitrile + 0.1% formic acid, pH 3; gradient (min/%B) 0/5 2/5 17/99.9 20/99.9.
Data set [5] can be described thus: RP, Merck Supelco Ascentis Express C18, 100 × 2.1 mm, 2 µm, 40 °C, 0.4 mL/min, estimated dead time 0.55 min; A: water + 0.1% formic acid, pH 3; B: acetonitrile + 0.1% formic acid, pH 3; gradient (min/%B) 0/5 2/5 17/99.9 20/99.9. The source holds these as a separate data set.
Data set [6] is described as follows: RP, Merck Supelco Ascentis Express C18, 100 × 2.1 mm, 2 µm, 40 °C, 0.35 mL/min, estimated dead time 0.63 min; A: water + 0.1% formic acid, pH 3; B: acetonitrile + 0.1% formic acid, pH 3; gradient (min/%B) 0/5 2/5 17/99.9 20/99.9.
Data set [7] can be described thus: RP, Merck Supelco Ascentis Express C18, 100 × 2.1 mm, 2 µm, 39 °C, 0.3 mL/min, estimated dead time 0.73 min; A: water + 0.1% formic acid, pH 3; B: acetonitrile + 0.1% formic acid, pH 3; gradient (min/%B) 0/5 2/5 17/99.9 20/99.9.

Take `CC(=O)OCC(=O)C1(O)CCC2C3CCC4=CC(=O)CCC4(C)C3C(O)CC21C` (stereo not given) [CORTISOL 21-ACETATE]: the LC retention time in data set [1] is 9.62 min; in data set [2] it was 9.62 min; in data set [3], 8.09 min; in data set [4], 9.05 min; in data set [5] it was 8.05 min; in data set [6], 8.33 min. Besides, the LC retention time in data set [7] was 8.64 min.
In the case of `CC12CCC(=O)C=C1CCC1C2C(O)CC2(C)C1CCC2(O)C(=O)CO` (stereo not given) [CORTISOL], the LC retention time is 8.04 min in data set [1]; 8.03 min in data set [2]; 6.69 min in data set [3]; 7.53 min in data set [4]; 6.65 min in data set [5]; 6.88 min in data set [6]. Moreover, in data set [7], the LC retention time was 7.17 min.
In the case of `CC12CCC(=O)C=C1CCC1C2C(=O)CC2(C)C1CCC2(O)C(=O)CO` (stereo not given) [CORTISONE], the LC retention time in data set [1] is 8.09 min; in data set [2] it was 8.07 min; in data set [3], 6.73 min; in data set [4], 7.56 min; in data set [5] it was 6.69 min; in data set [6], 6.91 min. Besides, the LC retention time in data set [7] was 7.21 min.
`Nc1nc2c(ncn2C2CC(O)C(CO)O2)c(=O)[nH]1` (stereo not given) [DEOXYGUANOSINE]: the LC retention time in data set [1] is 1.44 min; in data set [2] it was 1.47 min; in data set [3], 0.703 min; in data set [4], 1.13 min; in data set [5] it was 0.707 min; in data set [6], 0.82 min. Besides, in data set [7], the LC retention time is 0.943 min.
Regarding `O=c1ccn(C2CC(O)C(CO)O2)c(=O)[nH]1` (stereo not given) [DEOXYURIDINE], the LC retention time was 1.41 min in data set [1]; 1.42 min in data set [2]; 0.697 min in data set [3]; 1.12 min in data set [4]; 0.68 min in data set [5]; 0.81 min in data set [6]. Also, the LC retention time in data set [7] was 0.953 min.
With `CC1NC(=O)NC1CCCCCC(=O)O` (stereo not given) [DETHIOBIOTIN], the LC retention time in data set [1] is 5.96 min; in data set [2], 5.92 min; in data set [3], 4.58 min; in data set [4], 5.43 min; in data set [5], 4.54 min; in data set [6], 4.81 min. Moreover, the LC retention time in data set [7] is 5.15 min.
For the compound `CCC=CCC=CCC=CCC=CCC=CCCCC(=O)O` [EICOSAPENTAENOATE], the LC retention time was 15.9 min in data set [1]; 15.9 min in data set [2]; 13.9 min in data set [3]; 15.2 min in data set [4]; 13.9 min in data set [5]; 14.2 min in data set [6]. Besides, in data set [7], the LC retention time was 14.7 min.
Regarding `CCC(C(=O)O)C(=O)O` [ETHYLMALONATE], the LC retention time in data set [1] was 3.01 min; in data set [2], 3.05 min; in data set [3], 1.48 min; in data set [4], 2.31 min; in data set [5], 1.48 min; in data set [6] it was 1.72 min. The LC retention time in data set [7] is 2.06 min.
In the case of `COc1cc(C=CC(=O)O)ccc1O` [FERULATE], the LC retention time in data set [1] was 6.33 min; in data set [2], 6.32 min; in data set [3], 4.85 min; in data set [4], 5.78 min; in data set [5] it was 4.81 min; in data set [6] it was 5.07 min. In data set [7], the LC retention time is 5.39 min.
As for `Nc1nc2ncc(CNc3ccc(C(=O)NC(CCC(=O)O)C(=O)O)cc3)nc2c(=O)[nH]1` (stereo not given) [FOLATE], the LC retention time in data set [1] was 4.66 min; in data set [2], 4.69 min; in data set [3], 3.58 min; in data set [4] it was 4.27 min; in data set [5], 3.58 min; in data set [6], 3.76 min. The LC retention time in data set [7] is 3.99 min.
